Measured values published in patent publication US9198915B2, “Methods involving aldose reductase inhibitors” (The Board of Regents of The University of Texas System, priority 2007, dated 2015).

Assays:
[1] = test system: COX-2, iNOS, Bcl-XL, Bax, cyclin D1, E2F2; assay: RW-induced inflammatory, apoptosis and cell cycle proteins in SAEC (Western blot); format: cell-based, human; settings: RW 50 μg/ml, 24 h
Description: Fourty micrograms of cytoplasmic protein extracts, prepared as described earlier were resolved on 10% SDS-PAGE. After electrophoresis, the proteins were electro transferred to a nitrocellulose membrane, blocked with 5% nonfat milk in TBST, and probed with antibodies against COX-2, NOS2, Bcl-xL, Bax, cyclin D1, E2F2 (1:1,000 dilution) for 2 hr. The blot was then washed, exposed to HRP-conjugated secondary antibodies (1:5,000 dilution) for 1 hr, and the antigen-antibody complex was detected by enhanced chemiluminescence (Amersham Pharmacia Biotech, Piscataway, N.J., USA).

NF-κB and AP-1 = assay: RW-induced NF-κB and AP-1 activation in SAEC (EMSA); format: cell-based, human
Description: The SAEC were pretreated with or without AR inhibitors for 24 h in starving medium, followed by treatment with Ragweed pollens (RW) (50 μg/ml) for 2 h at 37° C. The nuclear extracts were prepared as described. Briefly, SAEC were harvested and washed with cold PBS and suspended in 0.1 ml of hypotonic lysis buffer containing protease inhibitors for 10 min. The cells were then lysed with 5 μl of 10% Nonidet P-40. The homogenate was centrifuged (6000 rpm; 1 min.), and supernatant containing the cytoplasmic extracts was stored frozen at −80° C. The nuclear pellet was resuspended in 50 μl ice-cold nuclear extraction buffer. After 30 min of intermittent mixing, the extract was centrifuged (12000 rpm; 15 min.), and supernatants containing nuclear extracts were secured. The protein content was measured by the Bradford method. If they were not used immediately, they were stored at −80° C. The Consensus oligonucleotides for NF-κB and AP-1 transcription factors were 5′-end labeled using T4 polynucleotide kinase. EMSA was performed as described. The specificity of the assay was examined by competition with an excess of unlabeled oligonucleotide and supershift assays with antibodies to p65.

O=C(O)Cc1nn(Cc2nc3cc(C(F)(F)F)ccc3s2)c(=O)c2ccccc12 [zopolrestat]
RW-induced increase of COX-2 and iNOS protein expression [1]: significantly prevented the increase | prevention of RW-induced increase in expression of cyclin D1 and E2F2 [1]: > 90% | prevention of RW-induced NF-κB activation and nuclear translocation (NF-κB and AP-1; RW 50 μg/ml): > 80% | basal NF-κB activity, compound alone (NF-κB and AP-1; no RW): did not affect
